In one data set the test system is Pythium ultimum. As to the kind of experiment: Pythium ultimum/liquid culture (seedling damping off). The data set is classed as cell-based. The following applies: Globisporangium ultimum, liquid culture, potato dextrose broth, inhibition of growth determined photometrically 2-3 days after application, read-out: disease control.
Data set [1] relates to Mycosphaerella arachidis (Cercospora arachidicola). As to the kind of experiment: Mycosphaerella arachidis (Cercospora arachidicola)/liquid culture (early leaf spot). The format is cell-based. The following applies: liquid culture, PDB, inhibition of growth determined photometrically 4-5 days after application, read-out: disease control.
Data set [2] deals with Mycosphaerella graminicola (Septoria tritici). As to the kind of experiment: Mycosphaerella graminicola (Septoria tritici)/liquid culture (Septoria blotch). The format is cell-based. The settings on record: Zymoseptoria tritici, liquid culture, PDB, inhibition of growth determined photometrically 4-5 days after application, read-out: disease control.
Data set [3] deals with Monographella nivalis (Microdochium nivale). As to the kind of experiment: Monographella nivalis (Microdochium nivale)/liquid culture (foot rot cereals). The data set is classed as cell-based. The following applies: liquid culture, PDB, inhibition of growth determined photometrically 4-5 days after application, read-out: disease control.

Regarding `OB1OCc2cc3c(cc21)OC(F)(F)O3` [Compound 1], the melting point is 147 to 149 °C. Also, the inhibition of growth at 20 ppm in the data set on Pythium ultimum was at least 80%. Also, the inhibition of growth at 20 ppm in data set [1] is at least 80%. For the same compound, the inhibition of growth at 20 ppm in data set [2] was at least 80%. Also, the inhibition of growth at 20 ppm in data set [3] was at least 80%.
`COc1cc2c(cc1Cl)COB2O` [Compound 5, 5-chloro-1-hydroxy-6-methoxy-3H-2,1-benzoxaborole]: the inhibition of growth at 20 ppm (with Pythium ultimum; in data set [1]; in data set [2]; in data set [3]) was at least 80% each time.
With `OB1OCc2cc(Cl)c(O)cc21` [Compound 6, 5-chloro-1-hydroxy-3H-2,1-benzoxaborol-6-ol], the melting point fell in the range of 194 to 195 °C. For the same compound, the inhibition of growth at 20 ppm in the data set with Pythium ultimum is at least 80%. Besides, the inhibition of growth at 20 ppm in data set [1] is at least 80%. Also, in data set [2], the inhibition of growth at 20 ppm is at least 80%. For the same compound, the inhibition of growth at 20 ppm in data set [3] was at least 80%.
In turn, `CCOc1cc2c(cc1Cl)COB2O` [Compound 9, 5-chloro-6-ethoxy-1-hydroxy-3H-2,1-benzoxaborole] returned a melting point of 146 to 148 °C. Besides, in the data set with Pythium ultimum, the inhibition of growth at 20 ppm was at least 80%. Also, the inhibition of growth at 20 ppm in data set [1] was at least 80%. The inhibition of growth at 20 ppm in data set [2] was at least 80%. Further, the inhibition of growth at 20 ppm in data set [3] was at least 80%.
Take `CCOc1cc2c(cc1C)COB2O` [Compound 38, 6-ethoxy-1-hydroxy-5-methyl-3H-2,1-benzoxaborole]: the melting point lay within 97 to 100 °C. Also, the inhibition of growth at 20 ppm with Pythium ultimum was at least 80%. Moreover, the inhibition of growth at 20 ppm in data set [1] was at least 80%. The inhibition of growth at 20 ppm in data set [2] is at least 80%. Further, the inhibition of growth at 20 ppm in data set [3] is at least 80%.
`OB1OCc2cc(Cl)c(O)c(Cl)c21` [Compound 94, 5,7-dichloro-1-hydroxy-3H-2,1-benzoxaborol-6-ol] returned a melting point of 174 to 176 °C. Besides, the inhibition of growth at 20 ppm in the data set on Pythium ultimum was at least 80%. For the same compound, the inhibition of growth at 20 ppm in data set [1] is at least 80%. In data set [2], the inhibition of growth at 20 ppm was at least 80%. The inhibition of growth at 20 ppm in data set [3] is at least 80%.
Take `CCOc1c(Cl)cc2c(c1Cl)B(O)OC2` [Compound 95, 5,7-dichloro-6-ethoxy-1-hydroxy-3H-2,1-benzoxaborole]: the melting point lay in the range of 109 to 111 °C. Besides, the inhibition of growth at 20 ppm in the data set on Pythium ultimum is at least 80%. Further, the inhibition of growth at 20 ppm in data set [1] is at least 80%. The inhibition of growth at 20 ppm in data set [2] is at least 80%. The inhibition of growth at 20 ppm in data set [3] was at least 80%.
In the case of `COc1cc(Cl)cc2c1B(O)OC2` [Compound 104, 5-chloro-1-hydroxy-7-methoxy-3H-2,1-benzoxaborole], the melting point was 146 to 148 °C. Moreover, in the data set with Pythium ultimum, the inhibition of growth at 20 ppm is at least 80%. Moreover, the inhibition of growth at 20 ppm in data set [1] is at least 80%. The inhibition of growth at 20 ppm in data set [2] is at least 80%. The inhibition of growth at 20 ppm in data set [3] was at least 80%.

As a reminder, the melting point is the temperature, or range, at which the solid turns liquid.

The record behind these values is patent US10040806B2, “Microbiocidally active benzoxaboroles” (Syngenta Participations AG, priority 2014, dated 2018).
